The text below walks through data of patent publication US20230123334A1, “AMINO LIPID COMPOUND, PREPARATION METHOD THEREFOR, AND APPLICATION THEREOF” (SHENZHEN SHENXIN BIOTECHNOLOGY CO., LTD., priority 2020, published 2023).

SMILES strings stand for the structures.

The assay concerns HEK293 cells. Nature of the assay: Preliminary screening as DNA vectors, GFP transfection of HEK293 cells. The settings on record: amino lipid/DOPE liposome with 75 ng plasmid DNA (psin-EGFP-IRES-Puro); number of GFP-expressing cells divided by total nuclei (Hoechst). It counts as cell-based. A digest of the protocol:
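Lipid + DOPE liposomes (NaOAc, pH 5.6) complexed w/ 75 ng psin-EGFP-IRES-Puro, 30 min RT; added to 3-5×10^4 HEK293/well, 37° C. Hoechst 0.2 μg/mL at 20-24 h, imaged after further 20-24 h. Efficiency = GFP+ cells / total nuclei.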

As for `CCCCCCCCCCCCCCCCSc1nc(NCCCCCCCCCCCC)nc(NCCN2CCOCC2)n1` [S16N12 D2], the “Absolute DNA transfection efficiency in HEK293 cells” value (shortened to “Absolute DNA transfection efficiency”) amounted to 0.0%.
For the compound `CCCCCCCCCCCCCCCCSc1nc(NCCCCCCCCCCCC)nc(NCCN2CCCC2)n1` [S16N12 D3], the “Absolute DNA transfection efficiency” value stood at 3.9%.
As for `CCCCCCCCCCCCCCCCSc1nc(NCCCCCCCCCCCC)nc(NCCN2CCCCC2)n1` [S16N12 D4], the “Absolute DNA transfection efficiency” value was determined as 0.0%.
The figure for `CCCCCCCCCCCCCCCCSc1nc(NCCCCCCCCCCCC)nc(NCCN2CCN(C)CC2)n1` [S16N12 D5] is 1.9%; for `CCCCCCCCCCCCCCCCSc1nc(NCCCCCCCCCCCC)nc(NCCCN(C)C)n1` [S16N12 D6] it is 2.7%; for `CCCCCCCCCCCCCCCCSc1nc(NCCCCCCCCCCCC)nc(NCCN(CC)CC)n1` [S16N12 D7] it is 0.7%.
The figure for `CCCCCCCCCCCCCCCCSc1nc(NCCCCCCCCCCCC)nc(NCCCN2CCOCC2)n1` [S16N12 D8] is 0.0%.
Regarding `CCCCCCCCCCCCCCCCSc1nc(NCCCCCCCCCCCC)nc(NCCCN2CCN(C)CC2)n1` [S16N12 D9], the “Absolute DNA transfection efficiency” value turned out to be 11.4%.
In the case of `CCCCCCCCCCCCCCCCSc1nc(NCCCCCCCCCCCC)nc(NCC2CCN(C)CC2)n1` [S16N12 D10], the “Absolute DNA transfection efficiency” value came out at 2.1%.
The figure for `CCCCCCCCCCCCCCCCSc1nc(NCCCCCCCCCCCCC)nc(NCCN(C)C)n1` [S16N13 D1] is 1.2%; for `CCCCCCCCCCCCCCCCSc1nc(NCCCCCCCCCCCCC)nc(NCCN2CCOCC2)n1` [S16N13 D2] it is 0.0%; for `CCCCCCCCCCCCCCCCSc1nc(NCCCCCCCCCCCCC)nc(NCCN2CCCC2)n1` [S16N13 D3] it is 1.5%.
In the case of `CCCCCCCCCCCCCCCCSc1nc(NCCCCCCCCCCCCC)nc(NCCN2CCCCC2)n1` [S16N13 D4] it was 0.0%.
As to `CCCCCCCCCCCCCCCCSc1nc(NCCCCCCCCCCCCC)nc(NCCN2CCN(C)CC2)n1` [S16N13 D5], the “Absolute DNA transfection efficiency” value came to 0.8%.
In the case of `CCCCCCCCCCCCCCCCSc1nc(NCCCCCCCCCCCCC)nc(NCCCN(C)C)n1` [S16N13 D6], the “Absolute DNA transfection efficiency” value came out at 1.2%.
In the case of `CCCCCCCCCCCCCCCCSc1nc(NCCCCCCCCCCCCC)nc(NCCN(CC)CC)n1` [S16N13 D7] it was 3.7%; in that of `CCCCCCCCCCCCCCCCSc1nc(NCCCCCCCCCCCCC)nc(NCCCN2CCOCC2)n1` [S16N13 D8], 0.2%; in that of `CCCCCCCCCCCCCCCCSc1nc(NCCCCCCCCCCCCC)nc(NCCCN2CCN(C)CC2)n1` [S16N13 D9], 5.7%.
In the case of `CCCCCCCCCCCCCCCCSc1nc(NCCCCCCCCCCCCC)nc(NCC2CCN(C)CC2)n1` [S16N13 D10] it was 2.0%; in that of `CCCCCCCCCCCCCCCCSc1nc(NCCCCCCCCCCCCCCC)nc(NCCN(C)C)n1` [S16N15 D1], 1.6%.
On to `CCCCCCCCCCCCCCCCSc1nc(NCCCCCCCCCCCCCCC)nc(NCCN2CCOCC2)n1` [S16N15 D2], for which the “Absolute DNA transfection efficiency” value came to 0.0%.
Consider `CCCCCCCCCCCCCCCCSc1nc(NCCCCCCCCCCCCCCC)nc(NCCN2CCCC2)n1` [S16N15 D3], for which the “Absolute DNA transfection efficiency” value is 0.0%.
In the case of `CCCCCCCCCCCCCCCCSc1nc(NCCCCCCCCCCCCCCC)nc(NCCN2CCCCC2)n1` [S16N15 D4] it was 2.6%; in that of `CCCCCCCCCCCCCCCCSc1nc(NCCCCCCCCCCCCCCC)nc(NCCN2CCN(C)CC2)n1` [S16N15 D5], 0.3%; in that of `CCCCCCCCCCCCCCCCSc1nc(NCCCCCCCCCCCCCCC)nc(NCCCN(C)C)n1` [S16N15 D6], 0.0%.
In the case of `CCCCCCCCCCCCCCCCSc1nc(NCCCCCCCCCCCCCCC)nc(NCCN(CC)CC)n1` [S16N15 D7] it was 0.6%; in that of `CCCCCCCCCCCCCCCCSc1nc(NCCCCCCCCCCCCCCC)nc(NCCCN2CCOCC2)n1` [S16N15 D8], 0.0%; in that of `CCCCCCCCCCCCCCCCSc1nc(NCCCCCCCCCCCCCCC)nc(NCCCN2CCN(C)CC2)n1` [S16N15 D9], 0.3%.
The figure for `CCCCCCCCCCCCCCCCSc1nc(NCCCCCCCCCCCCCCC)nc(NCC2CCN(C)CC2)n1` [S16N15 D10] is 0.2%; for `CCCCCCCCCCCCCCCCNc1nc(NCCN(C)C)nc(SCCCCCCCCCCCCCCCC)n1` [S16N16 D1] it is 0.7%; for `CCCCCCCCCCCCCCCCNc1nc(NCCN2CCOCC2)nc(SCCCCCCCCCCCCCCCC)n1` [S16N16 D2] it is 0.0%.
`CCCCCCCCCCCCCCCCNc1nc(NCCN2CCCC2)nc(SCCCCCCCCCCCCCCCC)n1` [S16N16 D3]: the “Absolute DNA transfection efficiency” value was determined as 1.6%.
Regarding `CCCCCCCCCCCCCCCCNc1nc(NCCN2CCCCC2)nc(SCCCCCCCCCCCCCCCC)n1` [S16N16 D4], the “Absolute DNA transfection efficiency” value was found to be 3.4%.
In the case of `CCCCCCCCCCCCCCCCNc1nc(NCCN2CCN(C)CC2)nc(SCCCCCCCCCCCCCCCC)n1` [S16N16 D5] it was 0.5%; in that of `CCCCCCCCCCCCCCCCNc1nc(NCCCN(C)C)nc(SCCCCCCCCCCCCCCCC)n1` [S16N16 D6], 0.1%; in that of `CCCCCCCCCCCCCCCCNc1nc(NCCN(CC)CC)nc(SCCCCCCCCCCCCCCCC)n1` [S16N16 D7], 0.2%.
The figure for `CCCCCCCCCCCCCCCCNc1nc(NCCCN2CCOCC2)nc(SCCCCCCCCCCCCCCCC)n1` [S16N16 D8] is 0.0%.
The figure for `CCCCCCCCCCCCCCCCNc1nc(NCCCN2CCN(C)CC2)nc(SCCCCCCCCCCCCCCCC)n1` [S16N16 D9] is 0.0%; for `CCCCCCCCCCCCCCCCNc1nc(NCC2CCN(C)CC2)nc(SCCCCCCCCCCCCCCCC)n1` [S16N16 D10] it is 0.2%; for `CCCCCCCCCCCCCCCCCCNc1nc(NCCN(C)C)nc(SCCCCCCCCCCCCCCCC)n1` [S16N18 D1] it is 0.3%.
In the case of `CCCCCCCCCCCCCCCCCCNc1nc(NCCN2CCOCC2)nc(SCCCCCCCCCCCCCCCC)n1` [S16N18 D2], the “Absolute DNA transfection efficiency” value is listed as 0.0%.
For the compound `CCCCCCCCCCCCCCCCCCNc1nc(NCCN2CCCC2)nc(SCCCCCCCCCCCCCCCC)n1` [S16N18 D3], the “Absolute DNA transfection efficiency” value was found to be 0.6%.
The figure for `CCCCCCCCCCCCCCCCCCNc1nc(NCCN2CCCCC2)nc(SCCCCCCCCCCCCCCCC)n1` [S16N18 D4] is 0.2%.
In the case of `CCCCCCCCCCCCCCCCCCNc1nc(NCCN2CCN(C)CC2)nc(SCCCCCCCCCCCCCCCC)n1` [S16N18 D5] it was 0.0%; in that of `CCCCCCCCCCCCCCCCCCNc1nc(NCCCN(C)C)nc(SCCCCCCCCCCCCCCCC)n1` [S16N18 D6], 0.0%.
With `CCCCCCCCCCCCCCCCCCNc1nc(NCCN(CC)CC)nc(SCCCCCCCCCCCCCCCC)n1` [S16N18 D7], the “Absolute DNA transfection efficiency” value came out at 0.0%.
In the case of `CCCCCCCCCCCCCCCCCCNc1nc(NCCCN2CCOCC2)nc(SCCCCCCCCCCCCCCCC)n1` [S16N18 D8] it was 0.0%; in that of `CCCCCCCCCCCCCCCCCCNc1nc(NCCCN2CCN(C)CC2)nc(SCCCCCCCCCCCCCCCC)n1` [S16N18 D9], 0.0%.
On to `CCCCCCCCCCCCCCCCCCNc1nc(NCC2CCN(C)CC2)nc(SCCCCCCCCCCCCCCCC)n1` [S16N18 D10], for which the “Absolute DNA transfection efficiency” value stood at 1.2%.
The figure for `CCCCCCCCCCCCCCCCSc1nc(NCCN(C)C)nc(N(CCCCCCCCCCCC)CCCCCCCCCCCC)n1` [S16^2N12 D1] is 0.0%; for `CCCCCCCCCCCCCCCCSc1nc(NCCN2CCOCC2)nc(N(CCCCCCCCCCCC)CCCCCCCCCCCC)n1` [S16^2N12 D2] it is 0.0%.
The figure for `CCCCCCCCCCCCCCCCSc1nc(NCCN2CCCC2)nc(N(CCCCCCCCCCCC)CCCCCCCCCCCC)n1` [S16^2N12 D3] is 0.0%.
In the case of `CCCCCCCCCCCCCCCCSc1nc(NCCN2CCCCC2)nc(N(CCCCCCCCCCCC)CCCCCCCCCCCC)n1` [S16^2N12 D4] it was 0.1%; in that of `CCCCCCCCCCCCCCCCSc1nc(NCCN2CCN(C)CC2)nc(N(CCCCCCCCCCCC)CCCCCCCCCCCC)n1` [S16^2N12 D5], 0.0%; in that of `CCCCCCCCCCCCCCCCSc1nc(NCCCN(C)C)nc(N(CCCCCCCCCCCC)CCCCCCCCCCCC)n1` [S16^2N12 D6], 0.0%.
As for `CCCCCCCCCCCCCCCCSc1nc(NCCN(CC)CC)nc(N(CCCCCCCCCCCC)CCCCCCCCCCCC)n1` [S16^2N12 D7], the “Absolute DNA transfection efficiency” value is listed as 0.1%.
The figure for `CCCCCCCCCCCCCCCCSc1nc(NCCCN2CCOCC2)nc(N(CCCCCCCCCCCC)CCCCCCCCCCCC)n1` [S16^2N12 D8] is 0.0%; for `CCCCCCCCCCCCCCCCSc1nc(NCCCN2CCN(C)CC2)nc(N(CCCCCCCCCCCC)CCCCCCCCCCCC)n1` [S16^2N12 D9] it is 0.6%; for `CCCCCCCCCCCCCCCCSc1nc(NCC2CCN(C)CC2)nc(N(CCCCCCCCCCCC)CCCCCCCCCCCC)n1` [S16^2N12 D10] it is 0.3%.
Consider `CCCCCCCCCCCCCCCCCCSc1nc(NCCCCCC)nc(NCCN(C)C)n1` [S18N6 D1], for which the “Absolute DNA transfection efficiency” value was 6.9%.
